Laboratory results reported in paper PMC2360244 (British Journal of Cancer, 2007).
Read-outs that look alike come from different tables or passages of the source.

Legend:
[1] = system: p21waf1,cip1 promoter; test: p21waf1,cip1 promoter activity in vivo, A2780-p21waf1,cip1ZsGreen xenograft; design: species or system mice; conditions: 40 mpk p.o. once, 24 h after dosing
Procedure: To generate an HDAC inhibitor-responsive p21^waf1,cip1 promoter construct, the –1300 to +88 region of the p21^waf1,cip1 promoter was cloned into pGL3-basic-ZsGreen and stably transfected into A2780 ovarian carcinoma cells ([Belien et al, 2006]). For in vivo analysis of p21^waf1,cip1 promoter activity, A2780-p21^waf1,cip1ZsGreen cells were injected s.c. (10^7 cells per 200 μl) into the inguinal region of Nude mice and caliper-measurable tumours were obtained after 12 days. […] Tumours were collected using transcardial perfusion fixation with 4% paraformaldehyde. Cryosections of 10-μm thickness were mounted on glass slides and air-dried for 30 min at room temperature. Bodipy 558/568-phalloidin staining was performed on whole mounts to visualise actin (background cell staining). ZsGreen fluorescence was evaluated with an Axioplan 2 (Zeiss, Germany) equipped with Epiplan-Neofluar objectives and an Axiocam camera. CD-31 (CY3) immunofluorescent labelling was performed on whole mounts to visualise the endothelium of blood vessels.
(A) Tumours were harvested 4 h after the last dose. Nuclei are stained with Hoechst, while (CY3) immunofluorescent labelling was performed to visualise acetylated H3. Representative sections from […] independent mice are shown. (B) and (C) Tumours were collected after 24 h using transcardial perfusion fixation with 4% paraformaldehyde. […]

[2] = system: tubulin acetylation and Hsp70 in A2780 ovarian carcinoma cells; test: Western blot of acetylated tubulin and Hsp70 in A2780 cells (HDAC6 readout); assay type: cell-based, human; conditions: 24 h, western blot
Procedure: (§1) Human A2780 ovarian carcinoma cells were incubated with the indicated concentrations of HDAC inhibitors. Total cell lysates were prepared and analysed by SDS–PAGE. […] To control for equal loading, blots were stripped and re-probed with mouse monoclonal antiactin IgM (Ab-1, Oncogene Research products, Merck, Darmstadt, Germany). […] Protein–antibody complexes were then visualised by chemiluminescence (Pierce Chemical Co., Perbioscience, Erembodegem, Belgium) or fluorescence (Odyssey) according to manufacturer's instructions.
(§2) Total cell lysates were prepared and analysed by SDS–PAGE. Levels of acetylated H3 and tubulin, and of total levels of H3 and tubulin and of p21^waf1, cip1 and Hsp70 and c-raf protein, were detected using rabbit polyclonal and mouse monoclonal antibodies, followed by ECL detection as indicated in the Methods section. To control for equal loading, blots were stripped and re-probed with antibodies against actin and the nuclear protein Lamin B1. A representative experiment out of three is shown.

[3] = system: A2780 ovarian carcinoma xenograft; test: A2780 ovarian xenograft, tumour growth; assay type: in vivo, mice; conditions: median tumour size at end of study
Procedure: (§3) All mice used in the in vivo studies were athymic male NMRI nu/nu mice purchased from Janvier (France) and were treated according to the ethical guidelines prescribed by UKCCCR. A2780 ovarian, HCT116 colon and H460 lung carcinoma cells were injected s.c. (10^7 cells per 200 μl) into the inguinal region of Nude mice. […] Tumour size was determined using caliper measurement and tumour volume was determined by using the formula: TV=(a^2 × b)/2 (in which a represents the width and b the length).
(§4) Mice were treated orally once daily (q.d.) between day 4 and 28 (A2780) or between day 4 and 32 (H460 and HCT116). (A) A2780 ovarian tumours were measured at least twice a week throughout the study, and results are represented as the median tumour size, expressed in mm^3, of each individual group (n=10). (B) Mice were treated orally q.d. at the indicated doses. Results are represented as the treated/control values (%) of the median tumour size (n=10) at the end of the study.

[4] = system: HCT116 colon carcinoma xenograft; test: HCT116 colon xenograft, tumour growth; assay type: in vivo, mice; conditions: median tumour size at end of study
Procedure: as §3, §4

[5] = system: H3 acetylation and p21waf1,cip1 in A2780 ovarian carcinoma cells; test: Western blot of acetylated H3 and p21waf1,cip1 in A2780 cells (class I HDAC readout); assay type: cell-based, human
Procedure: as §1, §2

[6] = system: HDAC isotypes in partially purified extract from rat liver (MAL, unselective); conditions: read-out: Liver extract MAL unselective IC50, substrate MAL
Procedure: After centrifugation, the cleared extract was used for immunoprecipitation of HDAC1. […] Incubation was performed for 45 min at 37°C (immunoprecipitates) or 30 min at room temperature (HeLa nuclear extract). Before addition of substrate, HDAC inhibitors were added at increasing concentrations and preincubated for 10 min at room temperature. After incubation, the reaction was quenched with 35 μl stop buffer (1 M HCl and 0.4 M acetic acid). Released [^3H]acetic acid was extracted with 800 μl ethyl acetate and quantified by scintillation counting. Equal amounts of HDAC1 were immunoprecipitated as indicated by western blot analysis. Histone deacetylase 1 activity results are presented as mean±s.d. of three independent experiments on a single lysate. […] Finally, we measured the activities of different HDAC isotypes present in partially purified extract from rat liver using the fluorescent HDAC substrates MAL (unselective), B61 (selective for HDAC1, and to some extent also converted by HDAC3) and B12 (selective for HDAC6).

[7] = system: HUVECs; test: cells; conditions: Homo sapiens, HUVEC, read-out: IC50, growth of HUVECs
Procedure: (§5) Control cells were treated with the combined respective vehicle.

[8] = system: primary human mammary epithelial cells (HMEC); test: cells
Procedure: as §5

[9] = system: H460 lung carcinoma xenograft; test: H460 lung xenograft, tumour growth; assay type: in vivo, mice; conditions: median tumour size at end of study
Procedure: as §3, §4

SMILES: O=C(NO)c1cnc(N2CCN(S(=O)(=O)c3ccc4ccccc4c3)CC2)nc1 [R306465]
- p21waf1,cip1 promoter activation (ZsGreen fluorescence) in tumour sections [1]: large number of fluorescing cells
- concentration at which tubulin acetylation and Hsp70 levels increase [2]: 1 µM
- T/C values (%) A2780 ovarian ([3]; 10 mpk p.o. q.d. day 4 to 28): 47%
- T/C values (%) A2780 ovarian ([3]; 20 mpk p.o. q.d. day 4 to 28): 13%
- T/C values (%) A2780 ovarian ([3]; 40 mpk p.o. q.d. day 4 to 28): 24%
- T/C values (%) HCT116 colon ([4]; 10 mpk p.o. q.d. day 4 to 32): 76%
- T/C values (%) HCT116 colon ([4]; 20 mpk p.o. q.d. day 4 to 32): 75%
- T/C values (%) HCT116 colon ([4]; 30 mpk p.o. q.d. day 4 to 32): 57%
- T/C values (%) HCT116 colon ([4]; 40 mpk p.o. q.d. day 4 to 32): 34%
- concentration at which H3 acetylation is induced ([5]; 24 h, western blot): 100 nM
- concentration at which p21waf1,cip1 is induced ([5]; 24 h, western blot): 100 nM
- cellular potency for HDAC1 vs HDAC6 (higher for HDAC1) ([5]; H3 acetylation vs tubulin acetylation): 10 fold
- IC50 [6]: 886 ± 85 nM
- IC50 [7]: 186 ± 23 nM
- IC50 ([8]; read-out: IC50, primary HMEC proliferation): 32 ± 9.7 nM
- IC50 ([8]; read-out: IC50, quiescent non-proliferative HMEC cells): 7820 ± 435 nM
- T/C values (%) H460 lung ([9]; 10 mpk p.o. q.d. day 4 to 32): 56%
- T/C values (%) H460 lung ([9]; 20 mpk p.o. q.d. day 4 to 32): 64%
- T/C values (%) H460 lung ([9]; 40 mpk p.o. q.d. day 4 to 32): 31%
